Where two headings read alike, the source gives them in different places.

The conditions of data set [1]: cited from earlier work.
Data set [2] can be described thus: Aspen Plus absorber/stripper process model, CO2 vapor liquid equilibrium. Particulars: 11% mole fraction. From the text: For example, the suitability of a PEP variant for non-enzymatic carbon capture can be evaluated by modeling. The Electric Power Research Institute (EPRI; Palo Alto, CA) maintains and operates Aspen Plus process models based on the absorber/stripper configuration shown in FIG. 21 and standard operational parameters (e.g., as described in the Examples). These models are configured to accept generalized solvent (absorbent) properties and calculate the resulting energy penalty. Model inputs can include the solubility, viscosity, and heat capacity of the PEP variant, as well as the CO2 vapor liquid equilibrium (VLE) of the underlying carbon capture reaction equilibrium (absorption/desorption). VLE describes the number of moles CO2 per unit volume solution absorbed via reaction and dissolution as a function of CO2 partial pressure above solution. […] At higher temperature (e.g., 120° C. stripper), reactants are favored and HCO3 desorbs, releasing CO2 back into the gas phase for capture and compression. The difference ACO2 between these temperature extremes determines the absorption capacity of the solvent, or cyclic capacity of the absorber/stripper system.
These models can be used to quantify the energy penalty of a PEP variant for carbon capture chemistry relative to the MEA benchmark. […] The improvement can be evaluated at the temperatures of the absorber (40° C.) and stripper (120° C.).

The nature of data set [3]: Shear viscosity by Green-Kubo relation, MD simulation. The settings on record: aqueous solution. The procedure:
These simulations were performed under the same conditions and with the same forcefield as the PEP simulations. The shear viscosity of a liquid can be computed through several different atomistic simulation methods. […] In this method, the shear viscosity is obtained from the integral over time of the pressure tensor autocorrelation function: where V is the volume of the system, kB is the Boltzmann constant, T is temperature, Pxy denotes the element xy of the pressure tensor, and the angle bracket refers to the ensemble average. Viscosity plays an important role in pumping costs for moving aqueous PEP solutions between the absorber and stripper.

The conditions of data set [4]: in water at 298 K; non-reactive MD literature; cited from earlier work.
The conditions of data set [5]: pure water; cited from earlier work.

`CC(=O)O` [Acetic Acid]: the “Enthalpy of Solution, Literature value” in data set [1] (3 m to 4 m) was -0.0461 kcal/mol; in data set [1] (3 m to 5 m), -0.0418 kcal/mol; in data set [1] (4 m to 5 m), -0.088 kcal/mol.
For the compound `O=CO` [Formic Acid], the “Enthalpy of Solution, Literature value” in data set [1] (3 m to 4 m), in data set [1] (3 m to 5 m) and in data set [1] (4 m to 5 m) was 0 kcal/mol each time.
Consider `NCCO` [MEA, monoethanolamine], for which the figures for the “CO2 remaining bound in solution during absorber-stripper cycling” value in data set [2] (CCNG) and in data set [2] (SCPC) were 16% and 29%, respectively.
For the compound `C=C(OP(=O)(O)O)C(=O)O` [PEP, phosphoenolpyruvate], the “viscosity relative to the standard MEA solution” value in data set [3] (45 to 55 wt %) was “roughly triple”. Besides, in data set [3] (45 to 55 wt % (9.8 mol %), estimated), the real viscosity result is on record as “about 3 mPa*s”.
As for `O=C(O)O` [bicarbonate], in data set [4], the “diffusion coefficient, published literature” value was 1.17×10^−9 m^2s^−1.
On to `O` [water], for which the “viscosity, expected value” in data set [5] is “around 0.79 mPa·s”.

(Values after US20240342685A1, “ABSORBENT COMPOUNDS FOR CAPTURING CARBON DIOXIDE” (The Regents of the University of California, priority 2021, published 2024).)
